Data: patent publication US6967205B1, “Compounds with antibacterial and antiparasitic properties” (New Pharma Research Sweden AB, priority 1999, dated 2005)
In brackets after ≈: the same amount, converted by molar mass.

Key:
Experiment in all cases: M.I.C. by broth dilution method (NCCLS 1988), gram-positive bacteria
Format in all cases: cell-based
Bacillus cereus = settings: in vitro broth dilution
Protocol: (§1) The antibacterial activity of the present compounds was investigated by in vitro evaluation of their M.I.C. (Minimum Inhibitory Concentration) values. The evaluation was conducted in complete accordance with the “Broth dilution method”, as outlined by the U.S. National Committee for Clinical Laboratory Standards “NCCLS 1988”.
(§2) Solutions of the present compounds were prepared by dissolving 0.01 g of a test compound in either 10% KOH (aq) or a 10% KOH/DMF mixture, after which sterile, distilled H2O was added up to a total volume of 10 ml, thereby yielding a test compound concentration of 1 000 μg/ml.
(§3) In this evaluation, the antibacterial activity of the present compounds and enrofloxacin as reference compound was tested against seven strains of gram-positive bacteria, namely Bacillus subtilus (ATCC 6633), Bacillus cereus, Streptococcus faecium, Micrococcus Luteus (ATCC 9341), Staph. aureus (ATCC 29737), Staph. epidermidis (ATCC 12228) and Staphylococcus (ATCC 6538).

[1] = system: Bacillus subtilus (ATCC 6633); settings: ATCC6633, in vitro broth dilution
Protocol: as §1, §2, §3

[2] = system: Micrococcus Luteus (ATCC 9341); settings: ATCC9341, in vitro broth dilution, read-out: M.I.C. values Microc. Luteus
Protocol: as §1, §2, §3

[3] = system: Staph. aureus (ATCC 29737); settings: Staphylococcus aureus, ATCC29737, in vitro broth dilution
Protocol: as §1, §2, §3

[4] = system: Staph. epidermidis (ATCC 12228); settings: Staphylococcus epidermidis, ATCC12228, in vitro broth dilution
Protocol: as §1, §2, §3

[5] = system: Staphylococcus (ATCC 6538); settings: ATCC6538, in vitro broth dilution, read-out: M.I.C. values Staph. (ATCC 6538)
Protocol: as §1, §2, §3

Streptococcus faecium = settings: Enterococcus faecium, in vitro broth dilution, read-out: M.I.C. values Streptoc. faecium
Protocol: as §1, §2, §3

| SMILES | MIC (Bacillus cereus) | MIC [1] | MIC [2] | MIC [3] | MIC [4] | MIC [5] | MIC (Streptococcus faecium) |
| --- | --- | --- | --- | --- | --- | --- | --- |
| CS(=O)(=O)N1CCN(c2cc3c(cc2F)c(=O)c(C(=O)O)cn3C2CC2)CC1 [JA 10, 1-cyclopropyl-6-fluoro-7-[4-(methylsulfonyl)-1-piperazinyl]-4-oxo-1,4-dihydro-3-quinolinecarboxylic acid] | 0.12 µg/mL (≈ 0.293 µM) | 0.5 µg/mL (≈ 1.22 µM) | 2 µg/mL (≈ 4.88 µM) | 0.25 µg/mL (≈ 0.611 µM) | 0.25 µg/mL (≈ 0.611 µM) | 0.25 µg/mL (≈ 0.611 µM) | 1 µg/mL (≈ 2.44 µM) |
| O=C(O)c1cn(C2CC2)c2cc(N3CCN(c4ccc(Br)cn4)CC3)c(F)cc2c1=O [JA 40, 7-[4-(5-bromo-2-pyridinyl)-1-piperazinyl]-1-cyclopropyl-6-fluoro-4-oxo-1,4-dihydro-3-quinolinecarboxylic acid] | 0.06 µg/mL (≈ 0.123 µM) | 0.12 µg/mL (≈ 0.246 µM) | 2 µg/mL (≈ 4.1 µM) | 0.25 µg/mL (≈ 0.513 µM) | 0.12 µg/mL (≈ 0.246 µM) | 0.06 µg/mL (≈ 0.123 µM) | 1 µg/mL (≈ 2.05 µM) |
| O=C(O)c1cn(C2CC2)c2cc(N3CCN(c4cccc(Cl)c4S)CC3)c(F)cc2c1=O [JA 41, 7-[4-(3-chloro-2-sulfanylphenyl)-1-piperazinyl]-1-cyclopropyl-6-fluoro-4-oxo-1,4-dihydro-3-quinolinecarboxylic acid] | 0.25 µg/mL (≈ 0.527 µM) | 0.5 µg/mL (≈ 1.05 µM) | 2 µg/mL (≈ 4.22 µM) | 0.25 µg/mL (≈ 0.527 µM) | 0.25 µg/mL (≈ 0.527 µM) | 0.25 µg/mL (≈ 0.527 µM) | 1 µg/mL (≈ 2.11 µM) |
| O=C(O)c1cn(C2CC2)c2cc(N3CCN(c4cnccn4)CC3)c(F)cc2c1=O [JA 46, 1-cyclopropyl-6-fluoro-4-oxo-7-[4-(2-pyrazinyl)-1-piperazinyl]-1,4-dihydro-3-quinolinecarboxylic acid] | 0.06 µg/mL (≈ 0.147 µM) | 0.12 µg/mL (≈ 0.293 µM) | 1 µg/mL (≈ 2.44 µM) | 0.12 µg/mL (≈ 0.293 µM) | 0.12 µg/mL (≈ 0.293 µM) | 0.12 µg/mL (≈ 0.293 µM) | 0.5 µg/mL (≈ 1.22 µM) |
| O=C(O)c1ccc(CNc2cc3c(cc2F)c(=O)c(C(=O)O)cn3C2CC2)cc1 [JA 70, 7-[(4-carboxybenzyl)amino]-1-cyclopropyl-6-fluoro-4-oxo-1,4-dihydro-3-quinolinecarboxylic acid] | 0.12 µg/mL (≈ 0.303 µM) | 0.25 µg/mL (≈ 0.631 µM) | 1 µg/mL (≈ 2.52 µM) | 0.12 µg/mL (≈ 0.303 µM) | 0.25 µg/mL (≈ 0.631 µM) | 0.12 µg/mL (≈ 0.303 µM) | 2 µg/mL (≈ 5.05 µM) |

Results, then the molecule that gave them:

| MIC (Bacillus cereus) | MIC [1] | MIC [2] | MIC [3] | MIC [4] | MIC [5] | MIC (Streptococcus faecium) | SMILES |
| --- | --- | --- | --- | --- | --- | --- | --- |
| 0.06 µg/mL (≈ 0.124 µM) | 0.12 µg/mL (≈ 0.247 µM) | 0.5 µg/mL (≈ 1.03 µM) | 0.12 µg/mL (≈ 0.247 µM) | 0.06 µg/mL (≈ 0.124 µM) | 0.03 µg/mL (≈ 0.0618 µM) | 0.5 µg/mL (≈ 1.03 µM) | Cc1ccc(S(=O)(=O)N2CCN(c3cc4c(cc3F)c(=O)c(C(=O)O)cn4C3CC3)CC2)cc1 [JA 2, 1-cyclopropyl-6-fluoro-7-{4-[(4-methylphenyl)sulfonyl]-1-piperazinyl}-4-oxo-1,4-dihydro-3-quinolinecarboxylic acid] |
| 0.25 µg/mL (≈ 0.515 µM) | 0.25 µg/mL (≈ 0.515 µM) | 1 µg/mL (≈ 2.06 µM) | ≥ 0.12 µg/mL | 0.12 µg/mL (≈ 0.247 µM) | 0.06 µg/mL (≈ 0.124 µM) | 1 µg/mL (≈ 2.06 µM) | O=C(O)c1cn(C2CC2)c2cc(N3CCN(S(=O)(=O)Cc4ccccc4)CC3)c(F)cc2c1=O [JA 9, 7-[4-(benzylsulfonyl)-1-piperazinyl]-1-cyclopropyl-6-fluoro-4-oxo-1,4-dihydro-3-quinolinecarboxylic acid] |
| 0.01 µg/mL (≈ 0.0204 µM) | 0.25 µg/mL (≈ 0.511 µM) | 2 µg/mL (≈ 4.09 µM) | 0.25 µg/mL (≈ 0.511 µM) | 0.06 µg/mL (≈ 0.123 µM) | 0.06 µg/mL (≈ 0.123 µM) | 0.5 µg/mL (≈ 1.02 µM) | CCn1cc(C(=O)O)c(=O)c2cc(F)c(N3CCN(S(=O)(=O)c4ccc(OC)cc4)CC3)cc21 [JA 21, 1-ethyl-6-fluoro-7-{4-[(4-methoxyphenyl)sulfonyl]-1-piperazinyl}-4-oxo-1,4-dihydro-3-quinolinecarboxylic acid] |
| 0.06 µg/mL (≈ 0.154 µM) | 0.12 µg/mL (≈ 0.309 µM) | 2 µg/mL (≈ 5.15 µM) | 0.12 µg/mL (≈ 0.309 µM) | 0.12 µg/mL (≈ 0.309 µM) | 0.12 µg/mL (≈ 0.309 µM) | 2 µg/mL (≈ 5.15 µM) | O=C(O)c1cn(C2CC2)c2cc(NC3CCC(C(=O)O)CC3)c(F)cc2c1=O (stereo not drawn) [JA 69, 7-[(4-carboxycyclohexyl)amino]-1-cyclopropyl-6-fluoro-4-oxo-1,4-dihydro-3-quinolinecarboxylic acid] |
